Assay results: patent US12077503B2, “Substituted cyclic amides and their use as herbicides” (FMC CORPORATION, priority 2015, dated 2024)

Legend:
Assay type in all cases: in vivo
Kochia (Kochia scoparia) [1] = assay: Test A preemergence; details: for Plant response rating, Kochia: 125 g ai/ha; for Kochia plant response rating (0 to 100 scale, 0 is no effect, 100 is complete control): 500 g ai/ha, visual injury approx. 10 d
Summary of the method: (§1)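 Greenhouse, ~10 d after spray; visual injury vs untreated controls, 0 = no effect, 100 = complete control. Preemergence: directed soil spray over planted seeds. Postemergence: plants 2–10 cm, 1–2 leaf stage. Loam/sand blend. Compound in non-phytotoxic solvent with surfactant.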

[2] = test system: barnyardgrass (Echinochloa crus-galli); assay: Test A preemergence; details: for Plant response rating, Barnyardgrass: 125 g ai/ha; for Barnyardgrass plant response rating (0 to 100 scale, 0 is no effect, 100 is complete control): 500 g ai/ha, visual injury approx. 10 d
Summary of the method: as §1

[3] = test system: giant foxtail (Setaria faberii); assay: Test A preemergence; details: for Plant response rating, Foxtail, Giant: 125 g ai/ha; for Foxtail, Giant plant response rating (0 to 100 scale, 0 is no effect, 100 is complete control): 500 g ai/ha, visual injury approx. 10 d
Summary of the method: as §1

[4] = test system: pigweed (Amaranthus retroflexus); assay: Test A preemergence; details: for Plant response rating, Pigweed: 125 g ai/ha; for Pigweed plant response rating (0 to 100 scale, 0 is no effect, 100 is complete control): 500 g ai/ha, visual injury approx. 10 d
[5] = test system: ragweed (common ragweed, Ambrosia elatior); assay: Test A preemergence; details: for Plant response rating, Ragweed: 125 g ai/ha; for Ragweed plant response rating (0 to 100 scale, 0 is no effect, 100 is complete control): 500 g ai/ha, visual injury approx. 10 d
Summary of the method: as §1

[6] = test system: ryegrass, Italian (Italian ryegrass, Lolium multiflorum); assay: Test A preemergence; details: for Plant response rating, Ryegrass, Italian: 125 g ai/ha; for Ryegrass, Italian plant response rating (0 to 100 scale, 0 is no effect, 100 is complete control): 500 g ai/ha, visual injury approx. 10 d
Summary of the method: as §1

[7] = test system: Galium (catchweed bedstraw, Galium aparine); assay: Test A postemergence; details: for Galium plant response rating: 125 g ai/ha, visual injury rating on 0 to 100 scale (0 no effect, 100 complete control), approx. 10 d; for Plant response rating, Galium: 500 g ai/ha
Summary of the method: as §1

Kochia (Kochia scoparia) [8] = assay: Test A postemergence; details: for Kochia plant response rating: 125 g ai/ha, visual injury rating on 0 to 100 scale (0 no effect, 100 complete control), approx. 10 d; for Plant response rating, Kochia: 500 g ai/ha
Summary of the method: as §1

[9] = test system: barnyardgrass (Echinochloa crus-galli); assay: Test A postemergence; details: for Barnyardgrass plant response rating: 125 g ai/ha, visual injury rating on 0 to 100 scale (0 no effect, 100 complete control), approx. 10 d; for Plant response rating, Barnyardgrass: 500 g ai/ha
Summary of the method: as §1

[10] = test system: blackgrass (Alopecurus myosuroides); assay: Test A postemergence; details: for Blackgrass plant response rating: 125 g ai/ha, visual injury rating on 0 to 100 scale (0 no effect, 100 complete control), approx. 10 d; for Plant response rating, Blackgrass: 500 g ai/ha
Summary of the method: as §1

corn (Zea mays) = assay: Test A postemergence; details: for Corn plant response rating: 125 g ai/ha, visual injury rating on 0 to 100 scale (0 no effect, 100 complete control), approx. 10 d; for Plant response rating, Corn: 500 g ai/ha
Summary of the method: as §1

[11] = test system: giant foxtail (Setaria faberii); assay: Test A postemergence; details: for Foxtail, Giant plant response rating: 125 g ai/ha, visual injury rating on 0 to 100 scale (0 no effect, 100 complete control), approx. 10 d; for Plant response rating, Foxtail, Giant: 500 g ai/ha
Summary of the method: as §1

[12] = test system: pigweed (Amaranthus retroflexus); assay: Test A postemergence; details: for Pigweed plant response rating: 125 g ai/ha, visual injury rating on 0 to 100 scale (0 no effect, 100 complete control), approx. 10 d; for Plant response rating, Pigweed: 500 g ai/ha
Summary of the method: as §1

[13] = test system: ragweed (common ragweed, Ambrosia elatior); assay: Test A postemergence; details: for Ragweed plant response rating: 125 g ai/ha, visual injury rating on 0 to 100 scale (0 no effect, 100 complete control), approx. 10 d; for Plant response rating, Ragweed: 500 g ai/ha
Summary of the method: as §1

[14] = test system: ryegrass, Italian (Italian ryegrass, Lolium multiflorum); assay: Test A postemergence; details: for Ryegrass, Italian plant response rating: 125 g ai/ha, visual injury rating on 0 to 100 scale (0 no effect, 100 complete control), approx. 10 d; for Plant response rating, Ryegrass, Italian: 500 g ai/ha
Summary of the method: as §1

[15] = test system: wheat (Triticum aestivum); assay: Test A postemergence; details: for Wheat plant response rating: 125 g ai/ha, visual injury rating on 0 to 100 scale (0 no effect, 100 complete control), approx. 10 d; for Plant response rating, Wheat: 500 g ai/ha
Summary of the method: as §1

[16] = test system: barnyardgrass (Echinochloa crus-galli); assay: Test B flooded paddy test; details: Flood, 250 g ai/ha; 0 to 100 scale where 0 is no effect and 100 is complete control; 13 to 15 d
Summary of the method: (§2)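 2-leaf plants; pots flooded 3 cm over soil; cpd added to paddy water; depth held; greenhouse 13–15 d; visual rating vs controls, 0 = no effect, 100 = complete control.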

[17] = test system: ducksalad (Heteranthera limosa); assay: Test B flooded paddy test; details: Flood, 250 g ai/ha; 0 to 100 scale where 0 is no effect and 100 is complete control; 13 to 15 d
Summary of the method: as §2

rice (Oryra sativa) = assay: Test B flooded paddy test; details: Flood, 250 g ai/ha; 0 to 100 scale where 0 is no effect and 100 is complete control; 13 to 15 d
Summary of the method: as §2

[18] = test system: sedge, umbrella (small-flower umbrella sedge, Cyperus difformis); assay: Test B flooded paddy test; details: Flood, 250 g ai/ha; 0 to 100 scale where 0 is no effect and 100 is complete control; 13 to 15 d
Summary of the method: as §2

[19] = preemergence, 0 to 100 scale (0 no effect, 100 complete control)
[20] = postemergence, 0 to 100 scale, 0 no effect, 100 complete control
[21] = Preemergence, visual injury after approximately 10 d, 0 to 100 scale where 0 is no effect and 100 is complete control
[22] = Postemergence, 0 to 100 scale where 0 is no effect and 100 is complete control

SMILES	Kochia plant response rating (0 to 100 scale, 0 is no effect, 100 is complete control) (Kochia (Kochia scoparia) [1]; Preemergence)	Barnyardgrass plant response rating (0 to 100 scale, 0 is no effect, 100 is complete control) ([2]; Preemergence)	Foxtail, Giant plant response rating (0 to 100 scale, 0 is no effect, 100 is complete control) ([3]; Preemergence)	Pigweed plant response rating (0 to 100 scale, 0 is no effect, 100 is complete control) ([4]; Preemergence)	Ragweed plant response rating (0 to 100 scale, 0 is no effect, 100 is complete control) ([5]; Preemergence)	Ryegrass, Italian plant response rating (0 to 100 scale, 0 is no effect, 100 is complete control) ([6]; Preemergence)	Galium plant response rating ([7]; postemergence)	Kochia plant response rating (Kochia (Kochia scoparia) [8]; postemergence)	Barnyardgrass plant response rating ([9]; postemergence)	Blackgrass plant response rating ([10]; postemergence)	Corn plant response rating (corn (Zea mays); postemergence)	Foxtail, Giant plant response rating ([11]; postemergence)	Pigweed plant response rating ([12]; postemergence)	Ragweed plant response rating ([13]; postemergence)	Ryegrass, Italian plant response rating ([14]; postemergence)	Wheat plant response rating ([15]; postemergence)	Plant response rating, Barnyardgrass [16]	Plant response rating, Ducksalad [17]	Plant response rating, Rice (rice (Oryra sativa))	Plant response rating, Sedge, Umbrella [18]	further results
Cc1c(F)ccc(NC(=O)C2C(=O)NCC2c2cccc(OC(F)(F)C(F)F)c2)c1F (stereo not drawn) [Compound 460]	40	80	90	30	20	60	50	0	60	20	20	90	20	0	30	0	40	100	0	0	Plant response rating, Kochia (Kochia (Kochia scoparia) [1]; [19]): 0; Plant response rating, Barnyardgrass [2, 19]: 80; Plant response rating, Foxtail, Giant [3, 19]: 90; Plant response rating, Pigweed [4, 19]: 30; Plant response rating, Ragweed [5, 19]: 0; Plant response rating, Ryegrass, Italian [6, 19]: 40; Plant response rating, Galium [7, 20]: 60; Plant response rating, Kochia (Kochia (Kochia scoparia) [8]; [20]): 30; Plant response rating, Barnyardgrass [9, 20]: 70; Plant response rating, Blackgrass [10, 20]: 40; Plant response rating, Corn (corn (Zea mays); [20]): 40; Plant response rating, Foxtail, Giant [11, 20]: 80; Plant response rating, Pigweed [12, 20]: 40; Plant response rating, Ragweed [13, 20]: 0; Plant response rating, Ryegrass, Italian [14, 20]: 30; Plant response rating, Wheat [15, 20]: 20
CN1CC(c2ccccc2)C(C(=S)Nc2ccccc2F)C1=O (stereo not drawn) [Compound 471]	0	90	90	0	0	0	0	0	50	0	0	50	0	0	0	0	0	70	0	0	Plant response rating, Kochia (Kochia (Kochia scoparia) [1]; [19]): 0; Plant response rating, Barnyardgrass [2, 19]: 70; Plant response rating, Foxtail, Giant [3, 19]: 90; Plant response rating, Pigweed [4, 21]: 0; Plant response rating, Ragweed [5, 21]: 0; Plant response rating, Ryegrass, Italian [6, 21]: 0; Plant response rating, Galium [7, 22]: 0; Plant response rating, Kochia (Kochia (Kochia scoparia) [8]; [22]): 0; Plant response rating, Barnyardgrass [9, 20]: 70; Plant response rating, Blackgrass [10, 20]: 0; Plant response rating, Corn (corn (Zea mays); [20]): 0; Plant response rating, Foxtail, Giant [11, 22]: 70; Plant response rating, Pigweed [12, 22]: 0; Plant response rating, Ragweed [13, 22]: 0; Plant response rating, Ryegrass, Italian [14, 22]: 0; Plant response rating, Wheat [15, 22]: 0
CN1CC(c2ccc(C(F)(F)F)cc2F)C(C(=O)Nc2ccccc2S(C)(=O)=O)C1=O (stereo not drawn) [Compound 473]	80	100	100	90	70	90	60	40	90	40	0	70	50	50	0	0	40	75	20	0	Plant response rating, Kochia (Kochia (Kochia scoparia) [1]; [19]): 80; Plant response rating, Barnyardgrass [2, 19]: 80; Plant response rating, Foxtail, Giant [3, 19]: 90; Plant response rating, Pigweed [4, 21]: 80; Plant response rating, Ragweed [5, 21]: 20; Plant response rating, Ryegrass, Italian [6, 21]: 0; Plant response rating, Galium [7, 22]: 60; Plant response rating, Kochia (Kochia (Kochia scoparia) [8]; [22]): 80; Plant response rating, Barnyardgrass [9, 20]: 90; Plant response rating, Blackgrass [10, 20]: 60; Plant response rating, Corn (corn (Zea mays); [20]): 40; Plant response rating, Foxtail, Giant [11, 22]: 90; Plant response rating, Pigweed [12, 22]: 90; Plant response rating, Ragweed [13, 22]: 50; Plant response rating, Ryegrass, Italian [14, 22]: 40; Plant response rating, Wheat [15, 22]: 40
CC(C)=CCN1CC(c2cccc(C(F)(F)F)c2)C(C(=O)Nc2cccc(F)c2F)C1=O (stereo not drawn) [Compound 477]	0	90	90	0	0	0	0	0	40	0	0	40	0	0	0	0	0	0	0	0	Plant response rating, Kochia (Kochia (Kochia scoparia) [1]; [19]): 0; Plant response rating, Barnyardgrass [2, 19]: 20; Plant response rating, Foxtail, Giant [3, 19]: 90; Plant response rating, Pigweed [4, 21]: 0; Plant response rating, Ragweed [5, 21]: 0; Plant response rating, Ryegrass, Italian [6, 21]: 0; Plant response rating, Galium [7, 22]: 0; Plant response rating, Kochia (Kochia (Kochia scoparia) [8]; [22]): 0; Plant response rating, Barnyardgrass [9, 20]: 70; Plant response rating, Blackgrass [10, 20]: 30; Plant response rating, Corn (corn (Zea mays); [20]): 40; Plant response rating, Foxtail, Giant [11, 22]: 70; Plant response rating, Pigweed [12, 22]: 0; Plant response rating, Ragweed [13, 22]: 0; Plant response rating, Ryegrass, Italian [14, 22]: 0; Plant response rating, Wheat [15, 22]: 40
O=C(Nc1cccc(F)c1F)C1C(=O)N(CC=CCl)CC1c1cccc(C(F)(F)F)c1 (stereo not drawn) [Compound 485]	0	80	90	0	0	0	0	0	20	0	0	20	0	0	0	0	0	40	0	0	Plant response rating, Kochia (Kochia (Kochia scoparia) [1]; [21]): 0; Plant response rating, Barnyardgrass [2, 21]: 30; Plant response rating, Foxtail, Giant [3, 21]: 70; Plant response rating, Pigweed [4, 21]: 0; Plant response rating, Ragweed [5, 21]: 0; Plant response rating, Ryegrass, Italian [6, 21]: 0; Plant response rating, Galium [7, 22]: 30; Plant response rating, Kochia (Kochia (Kochia scoparia) [8]; [22]): 30; Plant response rating, Barnyardgrass [9, 22]: 50; Plant response rating, Blackgrass [10, 22]: 0; Plant response rating, Corn (corn (Zea mays); [22]): 20; Plant response rating, Foxtail, Giant [11, 22]: 70; Plant response rating, Pigweed [12, 22]: 40; Plant response rating, Ragweed [13, 22]: 0; Plant response rating, Ryegrass, Italian [14, 22]: 0; Plant response rating, Wheat [15, 22]: 20
